Assay results taken from US10487093B2, “Heterocyclic compounds, in particular 2-oxo-4,4,5,5,6,6,7,7-octahydrobenzoxazole derivatives, and their use as antibacterial compounds” (priority 2016, dated 2019).
In brackets after ≈: the same amount, converted by molar mass.

Legend:
E. coli MG1655 = assay: MIC, broth microdilution (CLSI) versus planktonic bacteria; type: cell-based, Escherichia coli; conditions: Escherichia coli, MG1655, read-out: MIC, Ec MG1655 WT
[1] = test system: human hepatic cell line (HepG2 ATCC HB-8065); assay: Human cell viability assay (CellTiter-Glo); conditions: Homo sapiens, HepG2, 24 h, read-out: IC50 (μg/mL) HepG2
[2] = test system: Enterobacter cloacae NCTC 13406; assay: MIC, broth microdilution (CLSI) versus planktonic bacteria; type: cell-based; conditions: NCTC13406; Enterobacter cloacae NCTC 13406; 16-20 h; mode of three independent experiments; read-out: MIC, Ecl NCTC 13406
E. coli MG1655 S83L = type: cell-based, Escherichia coli; conditions: compared to the isogenic parent strain E. coli MG1655; S83L mutation on DNA gyrase subunit GyrA
[3] = test system: Pseudomonas aeruginosa ATCC 27853; assay: MIC, broth microdilution (CLSI) versus planktonic bacteria; type: cell-based; conditions: ATCC27853; Pseudomonas aeruginosa ATCC 27853; 16-20 h; mode of three independent experiments; read-out: MIC, Pa ATCC 27853
[4] = test system: Escherichia coli ATCC 25922; assay: as above; type: cell-based; conditions: ATCC25922; Escherichia coli ATCC 25922; 16-20 h; mode of three independent experiments; read-out: MIC, Ec ATCC 25922
[5] = test system: Acinetobacter baumannii ATCC 19606; assay: as above; type: cell-based; conditions: ATCC19606; Acinetobacter baumannii ATCC 19606; 16-20 h; mode of three independent experiments; read-out: MIC, Ab ATCC 19606
E. coli ATCC BAA-2452 = assay: as above; type: cell-based; conditions: Escherichia coli ATCC BAA-2452; 16-20 h; mode of three independent experiments; read-out: MIC, Ec ATCC BAA 2452
E. coli NCTC 13476 = assay: as above; type: cell-based; conditions: NCTC13476; Escherichia coli NCTC 13476; 16-20 h; mode of three independent experiments; read-out: MIC, Ec NCTC 13476
[6] = test system: Acinetobacter baumannii NCTC 13420; assay: as above; type: cell-based; conditions: NCTC13420; Acinetobacter baumannii NCTC 13420; 16-20 h; mode of three independent experiments; read-out: MIC, Ab NCTC 13420
[7] = test system: Streptococcus pneumoniae ATCC 49619; assay: as above; type: cell-based; conditions: ATCC49619; Streptococcus pneumoniae ATCC 49619; 16-20 h; mode of three independent experiments; read-out: MIC, Sp ATCC 49619
E. coli MG1655 D87G = type: cell-based, Escherichia coli; conditions: compared to the isogenic parent strain E. coli MG1655; D87G mutation on DNA gyrase subunit GyrA

| Structure (SMILES) | MIC (E. coli MG1655) | IC50 [1] | MIC [2] | Fold increase in MIC, E. coli MG1655 S83L (E. coli MG1655 S83L) | MIC [3] | MIC [4] | MIC [5] | MIC (E. coli ATCC BAA-2452) | MIC (E. coli NCTC 13476) | MIC [6] | MIC [7] | Fold increase in MIC, E. coli MG1655 D87G (E. coli MG1655 D87G) |
| --- | --- | --- | --- | --- | --- | --- | --- | --- | --- | --- | --- | --- |
| COc1ccc2ncc(=O)n(CCN[C@@H]3CC[C@@H]4[C@@H](C3)OC(=O)N4c3ccc4c(n3)NC(=O)CO4)c2c1 [Compound 21, 1-(2-{[(3aR,6R,7aR)-2-oxo-3-{3-oxo-2H,3H,4H-pyrido[3,2-b][1,4]oxazin-6-yl}-octahydro-1,3-benzoxazol-6-yl]amino}ethyl)-7-methoxy-1,2-dihydroquinoxalin-2-one] | < 1 µg/mL | > 100 µg/mL | < 1 µg/mL | 1 fold | < 1 µg/mL | < 1 µg/mL | < 1 µg/mL | < 1 µg/mL | < 1 µg/mL | < 1 µg/mL | 1 to 10 µg/mL (≈ 1.97 to 19.7 µM) | 2 fold |
| Cc1ccc2ncc(=O)n(CCN[C@H]3CC[C@H]4[C@@H](C3)OC(=O)N4c3ccc4c(n3)NC(=O)CO4)c2c1 [Compound 27, 1-(2-{[(3aS,6S,7aR)-2-oxo-3-{3-oxo-2H,3H,4H-pyrido[3,2-b][1,4]oxazin-6-yl}-octahydro-1,3-benzoxazol-6-yl]amino}ethyl)-7-methyl-1,2-dihydroquinoxalin-2-one] | – | > 100 µg/mL | 1 to 10 µg/mL (≈ 2.04 to 20.4 µM) | – | 1 to 10 µg/mL (≈ 2.04 to 20.4 µM) | < 1 µg/mL | – | – | – | 1 to 10 µg/mL (≈ 2.04 to 20.4 µM) | < 1 µg/mL | – |
